Patent publication US20080287398A1, “COLD MENTHOL RECEPTOR-1 ANTAGONISTS” (priority 2007, published 2008)
“And” between values parts separate entries of the source, which are not always exact repeats. Identical values can stand only once. Like-named read-outs stand apart in the source and are kept apart here. Each block holds one compound with its values, some of them ahead of it.

Tests used:
canine TRPM8 [1] = molecular target: T1, canine TRPM8 (Canis lupus familiaris, UniProt Q1A7N1); assay: In vitro canine TRPM8 functional assay (Ca2+-sensitive dye, FLIPR/FDSS, icilin activation); format: cell-based; details: HEK293 cells expressing canine TRPM8, icilin activation; for inhibition at 1 µM: HEK293, 1 μM compound, read-out: % I (1 μM); for IC50: eight-point dose-response, read-out: IC50; for % I (0.5 μM): 0.5 μM compound
T1 construct: expressed in transfected cells
T1 sequence (Q1A7N1 1-1104): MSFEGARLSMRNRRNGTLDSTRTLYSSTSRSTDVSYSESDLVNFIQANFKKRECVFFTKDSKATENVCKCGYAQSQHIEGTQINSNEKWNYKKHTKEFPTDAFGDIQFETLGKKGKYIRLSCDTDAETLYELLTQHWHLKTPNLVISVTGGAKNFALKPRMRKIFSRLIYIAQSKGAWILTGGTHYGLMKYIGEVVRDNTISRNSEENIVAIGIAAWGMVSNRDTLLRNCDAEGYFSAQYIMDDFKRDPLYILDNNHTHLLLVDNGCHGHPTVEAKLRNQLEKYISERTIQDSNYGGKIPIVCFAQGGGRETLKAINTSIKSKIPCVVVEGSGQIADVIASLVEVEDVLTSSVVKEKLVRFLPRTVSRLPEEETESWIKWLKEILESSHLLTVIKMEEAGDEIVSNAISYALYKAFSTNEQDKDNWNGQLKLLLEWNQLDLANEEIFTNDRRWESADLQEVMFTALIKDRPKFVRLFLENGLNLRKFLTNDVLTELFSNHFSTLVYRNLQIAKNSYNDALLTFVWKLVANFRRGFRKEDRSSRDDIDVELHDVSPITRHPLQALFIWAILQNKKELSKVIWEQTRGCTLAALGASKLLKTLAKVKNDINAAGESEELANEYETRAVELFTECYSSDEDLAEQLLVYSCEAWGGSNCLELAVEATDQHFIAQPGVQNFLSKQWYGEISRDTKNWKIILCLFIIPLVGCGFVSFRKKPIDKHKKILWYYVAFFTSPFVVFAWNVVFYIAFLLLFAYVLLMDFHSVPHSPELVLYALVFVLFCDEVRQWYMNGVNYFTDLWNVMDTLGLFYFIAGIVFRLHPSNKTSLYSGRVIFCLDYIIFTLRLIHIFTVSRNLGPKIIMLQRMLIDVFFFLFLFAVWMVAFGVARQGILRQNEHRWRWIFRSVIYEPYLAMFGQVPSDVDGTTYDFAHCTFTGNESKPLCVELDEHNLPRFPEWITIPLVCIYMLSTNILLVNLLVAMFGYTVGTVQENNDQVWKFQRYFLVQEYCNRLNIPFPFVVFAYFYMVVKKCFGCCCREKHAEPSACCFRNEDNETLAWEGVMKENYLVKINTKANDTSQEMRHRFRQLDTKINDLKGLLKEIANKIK
Outline: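 HEK293 cells stably expressing canine TRPM8, loaded with Calcium 3 dye, preincubated with compound for 5 min before icilin at a concentration giving ~80% maximal response. Ca2+ fluorescence by FLIPR or FDSS; basal-subtracted, normalized to % maximal response, quadruplicate wells, sigmoidal fit for EC50/IC50.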

Male Sprague Dawley rats = assay: Inhibition of icilin-induced wet-dog shakes in rats; format: in vivo; details: rat; 30 mg/kg i.p.; 15′ pre icilin; wet-dog shakes vs vehicle
Sprague-Dawley rats = assay: CFA-induced paw radiant heat hypersensitivity; format: in vivo, rat; details: rat; for inhibition in vivo at 30 mg/kg: read-out: % Reversal
Procedure: Intraplantar injection of Complete Freund's Adjuvant (CFA) in rodents results in a long-lasting inflammatory reaction, characterized by a pronounced hypersensitivity to both thermal and mechanical stimuli. This hypersensitivity peaks between 24-72 hours following injection and can last for several weeks. […] This paradigm also may be conducted with a multiple dosing or a prophylactic dosing regime designed to alter the course of hyperalgesia development. This test predicts the analgesic, anti-allodynic and antihyperalgesic effect of numerous effective clinical agents, including NSAIDS such as acetaminophen, aspirin and ibuprofen, and opioids such as morphine.
Each rat was placed in a test chamber on a warm glass surface and allowed to acclimate for approximately 10 minutes. A radiant thermal stimulus (beam of light) was then focused through the glass onto the plantar surface of each hind paw in turn. The thermal stimulus was automatically shut off by a photoelectric relay when the paw was moved or when the cut-off time was reached (20 seconds for radiant heat at ˜5 Amps). An initial (baseline) response latency to the thermal stimulus was recorded for each animal prior to the injection of CFA. Twenty-four hours following intraplantar CFA injection, the response latency of the animal to the thermal stimulus was then re-evaluated and compared to the animal's baseline response time. […] Immediately following the post-CFA latency assessment, test compound or vehicle (usually Solutol, hydroxypropyl methylcellulose, hydroxypropyl beta-cyclodextrin or PEG-400) was administered i.p. or p.o. to rats. […] The percent reversal (% R) of hypersenstivitiy was calculated according to the following formula:
% Reversal=(Treatment Response-CFA Response)/(Baseline Response-CFA Response)×100.

canine TRPM8 [2] = molecular target: T1, canine TRPM8; assay: TRPM8 patch clamp assay (whole-cell, HEK293 cells); format: cell-based
Procedure: For patch clamp experiments, HEK293 cells stably transfected with canine TRPM8 were cultured in DMEM supplemented with 10% fetal bovine serum, 100 units/ml penicillin, 100 μg/ml streptomycin and 1 mg/ml G418. Cells were maintained at 37° C. and in 5% CO2.
The extracellular solution contained (in mM): NaCl, 132; EGTA, 1; KCl, 5.4; MgCl2, 0.8; HEPES, 10; glucose, 10; pH=7.4. Recordings were performed using the conventional whole-cell patch clamp technique, 1-2 days after plating cells onto glass coverslips at densities appropriate for single cell recording. Currents were amplified by a patch clamp amplifier and filtered at 2 kHz (Axopatch 200B, Molecular Devices, Union City, Calif.). Menthol (100 μM) was applied to the cell at 0.5 ml/min via a gravity-fed perfusion system. Recordings involving menthol activation were performed at 22° C.
In experiments where temperatures were varied, temperature ramps were generated by cooling the perfusate in an in-line cooler (Model SC-20, Warner Instruments, Hamden, Conn.) controlled by a temperature controller (Model CL-100, Warner Instruments). The temperature in the vicinity of the recorded cell was measured with a custom-made miniature thermo-microprobe connected to a monitoring thermometer (Model TH-8, Physitemp, Clifton, N.J.), and sampled using Digidata 1322A and pClamp 9.0 (Molecular Devices), as were the currents concurrently measured in the whole-cell patch clamp mode. The current was continuously sampled (at 100 Hz) at a holding potential of −60 mV.
Compounds were diluted from 10 mM DMSO stocks (stored at −20° C.) into an extracellular solution either containing 100 μM menthol or subjecting to cooling. Increasing concentrations of a compound were applied to a cell in a cumulative manner and concentration-dependent responses were measured after steady-state activation was achieved by either 100 μM menthol or cooling to 10° C. A saturating concentration of a reference antagonist was applied at the end of an experiment (either in the presence of 100 μM menthol or 10° C. temperature) to establish the baseline from which all the other measurements were subtracted.
Percentage inhibition by a compound was calculated as follows: 100×(1−Icomp/I0); where Icomp and I0 are steady-state current amplitudes in either the presence or absence of a concentration of the compound.

male SD rats = assay: Chronic constriction injury (CCI) model of neuropathic pain, acetone-induced hypersensitivity; format: in vivo; details: rat
Procedure: Through the mesh floor a series of five applications of acetone (0.05 mL/application) was sprayed onto the bottom of the paw using a multidose syringe device. A positive response took the form of an abrupt withdrawal or lifting of the paw. The percentage of positive responses from the five trials represented the individual's overall response that was then averaged over the entire treatment group. […] An ascending dose response relationship (as in Table 10 below) was generated by addition of successive doses of test compound followed by re-assessment of behavior.

rats = assay: Reversal of icilin-induced behaviors (wet-dog shakes) in rats; format: in vivo; details: rat; 30 mg/kg p.o.; 1 h post-icilin
Procedure: In this paradigm, icilin-induced shaking was counted for 10 minutes followed by administration of a compound of Formula (I). The diminution of shaking behavior is represented as a percent inhibition relative to icilin-induced shakes in the absence of test compound administration, as described by the following formula: % Inhibition=[1−(WDS count following test compound dose/WDS count prior to test compound dose)]×100.

male CD1 mice = assay: Acetic acid graded abdominal irritant test with a 24-hour thioglycolate pretreatment; format: in vivo; details: mouse; 30 mg/kg p.o.; time 1 h; abdominal contractions vs vehicle
Procedure: A chemical irritant (such as acetic acid, kaolin, bradykinin, phenyl-p-(benzo) quinine, bromo-acetylcholine, or zymosan) is injected in mice intraperitoneally, causing a contraction of the abdominal musculature, which is characterized by an elongation of the body extending through to the hind limbs. The number of such responses is quantitated and is reduced by pretreatment of analgesic agents, thus forming the basis for a screening test (Collier H O et al. Br J Pharmacol Chemother 1968, 32(2): 295-310). This type of abdominal irritant test has been used to predict the analgesic effect of numerous clinically effective agents, the potency of which in the abdominal irritant test parallels the magnitude of the dose needed in the relief of clinical pain.
One modification of the chemically-induced abdominal irritant model of visceral pain is to pretreat animals with agents known to induce inflammatory responses following intraperitoneal injection (such as LPS, zymosan, or thioglycolate). […] Because of the up-regulation of the TRPM8 receptor in inflammation, TRPM8 antagonists that are effective at reducing the mean number of contractions are predicted to provide antiinflammatory action in human clinical use.
The ability of compounds of Formula (I) to mitigate chemical irritant—induced abdominal contractions following a pre-conditioning inflammatory stimulus were studied. […]

[3] = read-out: IC50, mode of activation Cold (10° C.), HEK293 cells stably transfected with canine TRPM8, cooling to 10° C.
[4] = read-out: IC50, mode of activation Menthol (100 μM), HEK293 cells stably transfected with canine TRPM8, 100 μM menthol, 22° C.
[5] = 30 mg/kg p.o., time 2 h (printed 2 h or 2)

inhibition at 1 µM (canine TRPM8 [1]): 100%
IC50 (canine TRPM8 [1]): 220 nM and 260 nM
Compound: Cc1c(C(Cc2ccc(F)c(F)c2)P(=O)(OCC(C)(C)C)OCC(C)(C)C)sc2ccccc12 (stereo not drawn) [Cpd 53, [2-(3,4-Difluoro-phenyl)-1-(3-methyl-benzo[b]thiophen-2-yl)-ethyl]-phosphonic acid bis-(2,2-dimethyl-propyl) ester]
% Inhibition (Male Sprague Dawley rats): 65.6%
inhibition in vivo at 30 mg/kg (Sprague-Dawley rats; ip, 0.5 h, 30 mg/kg i.p., time 30′): 77%
inhibition in vivo at 30 mg/kg (Sprague-Dawley rats; po, 30 mg/kg p.o., time 2 h (printed 2 h or 2)): 44%

Compound: (S)-[1-(3-Bromo-benzo[b]thiophen-2-yl)-2-(4-trifluoromethoxy-phenyl)-ethyl]-phosphonic acid diisopropyl ester [Cpd 236]
% I (0.5 μM) (canine TRPM8 [1]): 103, 103%
IC50 (canine TRPM8 [2]; [3]): 2.9 nM
IC50 (canine TRPM8 [2]; [4]): 1.4 nM
% of Allodynic Baseline (male SD rats; 30 mg/kg p.o., preRx 4 hr): 28.6%
% of Allodynic Baseline (male SD rats; 100 mg/kg p.o., preRx 4 hr): 68.8%
% Reversal (Sprague-Dawley rats; [5]): 25%
% Inhibition (rats): 36.8%

inhibition at 1 µM (canine TRPM8 [1]): 100%
IC50 (canine TRPM8 [1]): 150 nM and 140 nM
Compound: CCCP(=O)(CCC)C(OCc1ccc(F)c(F)c1)c1sc2ccccc2c1C (stereo not drawn) [Cpd 42]
% Inhibition (Male Sprague Dawley rats): 70.6%

Compound: CC(C)OP(=O)(OC(C)C)C(Cc1ccc(F)c(F)c1)c1sc2ccccc2c1Br (stereo not drawn) [Cpd 15, [1-(3-Bromo-benzo[b]thiophen-2-yl)-2-(3,4-difluoro-phenyl)-ethyl]-phosphonic acid diisopropyl ester]
inhibition at 1 µM (canine TRPM8 [1]): 99%
IC50 (canine TRPM8 [1]): 29 nM and 48 nM and 105 nM
% Inhibition (Male Sprague Dawley rats): 71.1%
% I (male CD1 mice): 33%
inhibition in vivo at 30 mg/kg (Sprague-Dawley rats; ip, 30 mg/kg i.p., time 1 h): 95%
inhibition in vivo at 30 mg/kg (Sprague-Dawley rats; po, 30 mg/kg p.o., time 1 h): 82%
ED50 (Sprague-Dawley rats; po, p.o., 3-point dose-response, 10% solutol vehicle, 1 h time point, read-out: oral ED50): 11.4 mg/kg

Compound: (S)-[1-(3-Bromo-benzo[b]thiophen-2-yl)-2-(4-fluoro-phenyl)-ethyl]-phosphonic acid diisopropyl ester [Cpd 239]
% I (0.5 μM) (canine TRPM8 [1]): 103, 103%
IC50 (canine TRPM8 [1]): 37 nM and 27 nM and 31 nM
IC50 (canine TRPM8 [2]; [3]): 5.8 nM
IC50 (canine TRPM8 [2]; [4]): 3 nM
% of Allodynic Baseline (male SD rats; 30 mg/kg p.o., preRx 1 hr): 29.4%
% Reversal (Sprague-Dawley rats; [5]): 36%
% Inhibition (rats): 48.4%

inhibition at 1 µM (canine TRPM8 [1]): 100%
IC50 (canine TRPM8 [1]): 120 nM and 150 nM and 200 nM
Compound: Cc1c(C(Cc2ccc(F)c(F)c2)P(=O)(OC(C)C)OC(C)C)sc2ncccc12 (stereo not drawn) [Cpd 34, [2-(3,4-Difluoro-phenyl)-1-(3-methyl-thieno[2,3-b]pyridin-2-yl)-ethyl]-phosphonic acid diisopropyl ester]
% Inhibition (Male Sprague Dawley rats): 28.8%

Compound: CC(C)OP(=O)(OC(C)C)[C@H](Cc1ccc(F)c(F)c1)c1sc2ccccc2c1Br [Cpd 235, (R)-[1-(3-Bromo-benzo[b]thiophen-2-yl)-2-(3,4-difluoro-phenyl)-ethyl]-phosphonic acid diisopropyl ester]
IC50 (canine TRPM8 [1]): 253 nM
IC50 (canine TRPM8 [2]; IC50, mode of activation Menthol (100 μM), HEK293 cells stably transfected with canine TRPM8, 100 μM menthol, 22° C.): 59.2 nM
% of Allodynic Baseline (male SD rats; 30 mg/kg p.o., preRx 1 hr): 34.3%
inhibition in vivo at 30 mg/kg (Sprague-Dawley rats; po, 30 mg/kg p.o., time 1 h): 45%
